Measurements: patent publication US20260048145A1, “COMPOSITIONS AND METHODS FOR TREATING DRUG ADDICTION” (The Children's Medical Center Corporation, priority 2022, published 2026)
Numbered stars: 1 amine (or outer) side, 2 acyl side, 3 side chain; on linkers, the order of the positions; unused ones are H or OH. Square brackets hold non-standard residues; d marks the D form. Peptide text beside a SMILES is read from it. NMeF = CN[C@@H](Cc1ccccc1)C(=O)O; Suc = O=C(CCC(=O)[*:2])[*:1]

Tests used:
[1] = biological target: T1, NK3R (Mus musculus, UniProt P47937); test: Cocaine-induced locomotion assay with i.p. injection of senktide; assay type: in vivo, mice; details: i.p. injection of senktide vs saline; distance traveled in 30-minute post-treatment period
T1 construct: from tissue; host or cells: whole living mice (in vivo behavioural tests)
T1 sequence (P47937 1-452): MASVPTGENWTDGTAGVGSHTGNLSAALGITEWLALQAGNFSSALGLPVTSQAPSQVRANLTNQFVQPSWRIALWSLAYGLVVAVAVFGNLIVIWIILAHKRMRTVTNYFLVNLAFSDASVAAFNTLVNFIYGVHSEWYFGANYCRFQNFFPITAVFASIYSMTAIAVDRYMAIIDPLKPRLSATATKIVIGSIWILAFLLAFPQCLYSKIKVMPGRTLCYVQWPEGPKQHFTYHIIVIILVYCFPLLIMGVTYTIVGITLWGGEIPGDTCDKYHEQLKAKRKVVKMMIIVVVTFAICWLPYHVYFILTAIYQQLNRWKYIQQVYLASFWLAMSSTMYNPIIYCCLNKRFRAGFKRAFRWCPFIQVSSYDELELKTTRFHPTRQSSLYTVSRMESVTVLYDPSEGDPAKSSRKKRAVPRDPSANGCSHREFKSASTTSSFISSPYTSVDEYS
Protocol: (§1) FIGS. 12A-12B show systemic injection of a TacR3 agonist, senktide, reduced cocaine-conditioned place preference and cocaine-induced locomotion. […] The CPP scores were calculated by subtracting the time spent in pre-conditioning phase from the time spent in post-conditioning phase, *, […], unpaired t-test.
The basal level of locomotion as well as cocaine-induced change of locomotor activity were assessed in the open field arena the same as the OFT. For chemogenetics experiments, 20 minutes after administration of either saline or CNO, mice were individually placed in the center of the test chamber, triggering the infra-red tracking system to record locomotor activity, as measured by the number of beam breaks. For optogenetic experiments, the total duration of the behavioral test was 30 minutes, which was divided into […] 5×6-min epochs (with 3-minutes laser on. 3-minutes laser off, respectively). Different groups of mice were balanced across the 8 chambers to avoid potential environmental bias.
(§2) The Tac2 gene encodes the neuropeptide neurokinin B (NKB). NKB has high affinity for neurokinin 3 receptor (NK3R, encoded by the TacR3 gene). The NKB-NK3R (ligand-receptor) signal pathway is functional in both central and peripheral nervous systems and have been implicated in diverse physiological processes, such as reproduction, inflammation, and psychiatric disorders^55. […]

[2] = biological target: T1, NK3R; test: Cocaine-CPP with systemic injection of senktide; assay type: in vivo, mice; details: systemic injection of senktide vs saline; CPP score
Protocol: as §1
A two-compartment CPP chamber was used with one compartment with grid rod style floor and the other with mesh style floor (Med Associates). Chamber size is 25×19×17 cm (L×D×H). Mice trajectories were tracked by infra-red photobeam detectors, and the travel distance and the duration the mice spent in the two compartments were recorded. The CPP protocol consists of three sessions that include pre-conditioning, conditioning, and post-conditioning.
as §2, with “disorders^55. To evaluate the functional relevance of the NKB-NK3R pathway in addiction, an NK3R agonist, senktide, was systemically administered to mice, and then addiction-related behavioral tests were performed.” for “disorders^55.”

SMILES: CSCC[C@H](NC(=O)[C@H](CC(C)C)NC(=O)CNC(=O)[C@H](Cc1ccccc1)N(C)C(=O)[C@H](Cc1ccccc1)NC(=O)[C@H](CC(=O)O)NC(=O)CCC(=O)O)C(N)=O [senktide, Suc-Asp-Phe-(Me-Phe)-Gly-Leu-Met] (Suc-DF[NMeF]GLM-NH2)
- cocaine-induced locomotion [1]: reduced
- cocaine-conditioned place preference [2]: reduced
